Patent US11597702B2, “Substituted pyrazoles FFA4/GPR120 receptor agonists” (AXXAM S.P.A., priority 2018, dated 2023)

Molecular target: T1, GPR120 (Homo sapiens, UniProt Q5NUL3)
T1 construct: expressed in transfected cells; host or cells: CHO mitoPhotinaGPR120 cells
T1 sequence (Q5NUL3 1-361): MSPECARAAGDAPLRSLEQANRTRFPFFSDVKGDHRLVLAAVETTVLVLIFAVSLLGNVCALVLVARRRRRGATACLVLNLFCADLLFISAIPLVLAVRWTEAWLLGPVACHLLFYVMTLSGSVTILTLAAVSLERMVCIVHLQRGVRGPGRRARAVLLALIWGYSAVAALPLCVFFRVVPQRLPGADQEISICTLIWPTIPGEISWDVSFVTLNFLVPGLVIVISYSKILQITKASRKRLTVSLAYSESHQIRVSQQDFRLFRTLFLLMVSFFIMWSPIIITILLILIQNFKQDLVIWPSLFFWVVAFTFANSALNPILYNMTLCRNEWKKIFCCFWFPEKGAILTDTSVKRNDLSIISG
Assay: GPR120 agonism in CHO mitoPhotinaGPR120 cell based assay with fluorescent (Fluo-8 calcium, FLIPRTetra) readout, Agonist Mode, dose response
Conditions: CHO mitoPhotinaGPR120 cells, Fluo-8 No Wash Ca2+ dye, dose response in quadruplicate, 0.0033% fatty acid free BSA
Description: Compounds of the invention were tested for GPR120 agonism in a CHO mitoPhotinaGPR120 cell based assay with fluorescent readout in Agonist Mode in dose response in quadruplicate with intra-plate modality.
Twenty (20) h after seeding, growth medium was manually removed and cells were starved in the presence of 25 μL/w of Standard Tyrode's Buffer. After 3 h, cells were loaded with 20 μL/w of 0.5× Fluo-8 No Wash (AAT Bioquest, Inc.) Ca2+ sensitive dye prepared in Standard Tyrode's Buffer. Cells were incubated for 1 h at room temperature in the dark. Ten (10) μL/w 3× of controls and compounds were diluted in Standard Tyrode's Buffer+0.01% fatty acid free BSA (final concentration=0.0033%) and injected at the FLIPRTetra®, recording the kinetic calcium traces for 3 minutes. Standard Tyrode's buffer composition: 5 mM KCl, 130 mM NaCl, 2 mM CaCl2), 5 mM NaHCO3, 1 mM MgCl2, 20 mM HEPES, pH7.4.

Structure (SMILES) | EC50 [µM]
Cc1nn(-c2ccccc2)c(COc2ccc(CCCO)cc2F)c1C#N [Example 42, 5-[[2-fluoro-4-(3-hydroxypropyl)phenoxy]methyl]-3-methyl-1-phenyl-pyrazole-4-carbonitrile] | 0.49
Cc1nn(-c2ccccc2)c(COc2ccc(CC(=O)NCCO)cc2)c1C#N [Example 49, 2-[4-[(4-cyano-5-methyl-2-phenyl-pyrazol-3-yl)methoxy]phenyl]-~{N}-(2-hydroxyethyl)acetamide] | 18.4
COc1cc(CCCO)ccc1OCc1c(C#N)c(C)nn1-c1ccccc1 [Example 53, 5-[[4-(3-hydroxypropyl)-2-methoxy-phenoxy]methyl]-3-methyl-1-phenyl-pyrazole-4-carbonitrile] | 0.52
Cc1nn(-c2ccccc2)c(COc2ccc(C(C)O)cc2)c1C#N (stereo not drawn) [Example 54, 5-[[4-(1-hydroxyethyl)phenoxy]methyl]-3-methyl-1-phenyl-pyrazole-4-carbonitrile] | 18.4
COCc1ccc(OCc2c(C#N)c(C)nn2-c2ccccc2)cc1 [Example 55, 5-[[4-(methoxymethyl)phenoxy]methyl]-3-methyl-1-phenyl-pyrazole-4-carbonitrile] | 2.03
COCCc1ccc(OCc2c(C#N)c(C)nn2-c2ccccc2)cc1 [Example 56, 5-[[4-(2-methoxyethyl)phenoxy]methyl]-3-methyl-1-phenyl-pyrazole-4-carbonitrile] | 5
Cc1nn(-c2ccccc2)c(CSc2ccc(CCO)cc2)c1C#N [Example 59, 5-[[4-(2-hydroxyethyl)phenyl]sulfanylmethyl]-3-methyl-1-phenyl-pyrazole-4-carbonitrile] | 2.63
Cc1nn(-c2ccccc2)c(COc2ccc3n[nH]cc3c2)c1C#N [Example 61, 5-(2~{H}-indazol-5-yloxymethyl)-3-methyl-1-phenyl-pyrazole-4-carbonitrile] | 1.02
Cc1nn(-c2ccccc2)c(COc2ccc3ccncc3c2)c1C#N [Example 62, 5-(7-isoquinolyloxymethyl)-3-methyl-1-phenyl-pyrazole-4-carbonitrile] | 2.6
Cc1nn(-c2ccccc2)c(COc2cccc3cccnc23)c1C#N [Example 63, 3-methyl-1-phenyl-5-(8-quinolyloxymethyl)pyrazole-4-carbonitrile] | 16.4
Cc1nn(-c2ccccc2)c(COc2cccnc2C#N)c1C#N [Example 64, 3-[(4-cyano-5-methyl-2-phenyl-pyrazol-3-yl)methoxy]pyridine-2-carbonitrile] | 19.1
Cc1nn(-c2ccccc2)c(COc2cccnc2F)c1C#N [Example 65, 5-[(2-fluoro-3-pyridyl)oxymethyl]-3-methyl-1-phenyl-pyrazole-4-carbonitrile] | 3.56
Cc1ccncc1OCc1c(C#N)c(C)nn1-c1ccccc1 [Example 68, 3-methyl-5-[(4-methyl-3-pyridyl)oxymethyl]-1-phenyl-pyrazole-4-carbonitrile] | 8.32
Cc1ccc(OCc2c(C#N)c(C)nn2-c2ccccc2)cn1 [Example 69, 3-methyl-5-[(6-methyl-3-pyridyl)oxymethyl]-1-phenyl-pyrazole-4-carbonitrile] | 9.82
Cc1ccnc(C)c1OCc1c(C#N)c(C)nn1-c1ccccc1 [Example 70, 5-[(2,4-dimethyl-3-pyridyl)oxymethyl]-3-methyl-1-phenyl-pyrazole-4-carbonitrile] | 2.3
Cc1nn(-c2ccccc2)c(COc2ccc(F)nc2F)c1C#N [Example 71, 5-[(2,6-difluoro-3-pyridyl)oxymethyl]-3-methyl-1-phenyl-pyrazole-4-carbonitrile] | 5.69
Cc1cccc(-n2nc(C)c(C#N)c2COc2ccc(CCO)cc2)c1 [Example 73, 5-[[4-(2-hydroxyethyl)phenoxy]methyl]-3-methyl-1-(m-tolyl)pyrazole-4-carbonitrile] | 1.98
Cc1ccc(-n2nc(C)c(C#N)c2COc2ccc(CCO)cc2)cc1 [Example 74, 5-[[4-(2-hydroxyethyl)phenoxy]methyl]-3-methyl-1-(p-tolyl)pyrazole-4-carbonitrile] | 0.49
